Experimental data taken from ChEMBL document CHEMBL1828584, “Hybrids of oxoisoaporphine-tacrine congeners: novel acetylcholinesterase and acetylcholinesterase-induced β-amyloid aggregation inhibitors” (Eur J Med Chem, 2011).

Experiments:
[1] = target: Acetylcholinesterase (Electrophorus electricus, UniProt O42275)
Description: Inhibition of Electrophorus electricus AChE using acetylthiocholine chloride as substrate after 15 mins by Ellman's method

[2] = target: Cholinesterase (Equus caballus, UniProt P81908)
Description: Inhibition of equine serum BChE using acetylthiocholine chloride as substrate after 15 mins by Ellman's method

[3] = in vitro; details: PAMPA
Description: Permeability of the compound by PAMPA

O=C(CNCCNc1c2c(nc3ccccc13)CCC2)Nc1ccc2c(c1)C(=O)c1cccc3ccnc-2c13
IC50 [1]: 513 nM
IC50 [2]: 243 nM
Papp [3]: 4.6 ×10⁻⁶ cm/s

O=C(CCNCCNc1c2c(nc3ccccc13)CCC2)Nc1ccc2c(c1)C(=O)c1cccc3ccnc-2c13
IC50 [1]: 422 nM
IC50 [2]: 1760 nM
Papp [3]: 1.9 ×10⁻⁶ cm/s

O=C(CCNCCCNc1c2c(nc3ccccc13)CCC2)Nc1ccc2c(c1)C(=O)c1cccc3ccnc-2c13
IC50 [1]: 411 nM
IC50 [2]: 399 nM
Papp [3]: 4.9 ×10⁻⁶ cm/s

O=C(CCNCCCCNc1c2c(nc3ccccc13)CCC2)Nc1ccc2c(c1)C(=O)c1cccc3ccnc-2c13
IC50 [1]: 910 nM
IC50 [2]: 199 nM
Papp [3]: 2.4 ×10⁻⁶ cm/s

O=C(CNCCNc1c2c(nc3ccccc13)CCCC2)Nc1ccc2c(c1)C(=O)c1cccc3ccnc-2c13
IC50 [1]: 41 nM
IC50 [2]: 433 nM
Papp [3]: 4.8 ×10⁻⁶ cm/s

O=C(CCNCCNc1c2c(nc3ccccc13)CCCC2)Nc1ccc2c(c1)C(=O)c1cccc3ccnc-2c13
IC50 [1]: 3.4 nM
IC50 [2]: 110 nM
Papp [3]: 2.6 ×10⁻⁶ cm/s

O=C(CCNCCCNc1c2c(nc3ccccc13)CCCC2)Nc1ccc2c(c1)C(=O)c1cccc3ccnc-2c13
IC50 [1]: 57.1 nM
IC50 [2]: 199 nM
Papp [3]: 3.3 ×10⁻⁶ cm/s

O=C(CCNCCCCNc1c2c(nc3ccccc13)CCCC2)Nc1ccc2c(c1)C(=O)c1cccc3ccnc-2c13
IC50 [1]: 182 nM
IC50 [2]: 288 nM
Papp [3]: 2.1 ×10⁻⁶ cm/s

O=C(CNCCNc1c2c(nc3ccccc13)CCCCC2)Nc1ccc2c(c1)C(=O)c1cccc3ccnc-2c13
IC50 [1]: 61 nM
IC50 [2]: 211 nM
Papp [3]: 4 ×10⁻⁶ cm/s

O=C(CCNCCNc1c2c(nc3ccccc13)CCCCC2)Nc1ccc2c(c1)C(=O)c1cccc3ccnc-2c13
IC50 [1]: 51.7 nM
IC50 [2]: 65 nM
Papp [3]: 7.9 ×10⁻⁶ cm/s

O=C(CCNCCCNc1c2c(nc3ccccc13)CCCCC2)Nc1ccc2c(c1)C(=O)c1cccc3ccnc-2c13
IC50 [1]: 260 nM
IC50 [2]: 21.1 nM
Papp [3]: 8.9 ×10⁻⁶ cm/s

O=C(CCNCCCCNc1c2c(nc3ccccc13)CCCCC2)Nc1ccc2c(c1)C(=O)c1cccc3ccnc-2c13
IC50 [1]: 745 nM
IC50 [2]: 150 nM
Papp [3]: 1.1 ×10⁻⁶ cm/s

Nc1ccc2c(c1)C(=O)c1cccc3ccnc-2c13
IC50 [1]: > 100000 nM
IC50 [2]: > 100000 nM
